Laboratory results published in patent US10336735B2, “Small molecule inhibitors of fibrosis” (THE CALIFORNIA INSTITUTE FOR BIOMEDICAL RESEARCH, priority 2014, dated 2019).

Test system: primary human lung fibroblasts and primary rodent HSCs
Assay: High content imaging assay (α-SMA staining, cell morphology) of fibroblast to myofibroblast transdifferentiation, confirmed by Western blot and RT-PCR
Details: Homo sapiens, Fibroblast; imaging and western based activity
Excerpt: High content imaging assays have been established, using primary human lung fibroblasts and primary rodent HSCs, that enable the identification of small molecules that either inhibit myofibroblast formation/activation or induce the reversion of activated myofibroblasts to a quiescent fibroblast state. Conditions, involving serum starvation and subsequent TGF-β treatment, have been identified that facilitate robust in vitro transdifferentiation in a miniaturized (384 well plate) format that is amenable to high throughput small molecule screening. The inhibition assay is based on α-SMA immunofluorescent staining and cell morphology changes associated with fibroblast to myofibroblast transdifferentiation, Using the selective ALK-5 TGF-β1 receptor inhibitor ([…]) as a positive control, the inhibition assay has been used to initiate a screen of a collection of ˜100,000 small molecules that consists of bioactive small molecules and a diversity set that has been assembled based on 2D and 3D structural diversity and inherent “drug-likeness” properties. Preliminary screening led to the identification of multiple previously identified anti-fibrotic molecules.
A high content imaging assay, based on α-SMA staining and cell morphological changes associated with fibroblast to myofibroblast transdifferentiation, was established using primary human lung fibroblasts and primary rodent HSCs. Conditions, involving serum starvation and subsequent TGF-β treatment, were identified that facilitate robust in vitro transdifferentiation in a miniaturized (384 well plate) format that is amenable to high throughput small molecule screening. A selective ALK-5 TGF-β1 receptor inhibitor (SB-431542) was used as a positive control. […] This assay was used to evaluate compounds of Formula (I), (Ia), (II), (IIa), (III), (IIIa), (IV), (IVa), (IVb), (V), (Va), (VI), (VIa), (VIb), (VIc), (VII), (VIIa), (VIII), (VIIIa), (IX), (IXa), (X), or (Xa) generated from medicinal chemistry efforts.
The activity of Itraconazole and compounds of Formula (I), (Ia), (II), (IIa), (III), (IIIa), (IV), (IVa), (IVb), (V), (Va), (VI), (VIa), (VIb), (VIc), (VII), (VIIa), (VIII), (VIIIa), (IX), (IXa), (X), or (Xa) was confirmed by analyzing changes in gene expression of multiple genes associated with fibroblast to myofibroblast transdifferentiation using biochemical methods (i.e., Western blot and RT-PCR). These 4-day assays were used to evaluate sets of 6 compounds at a time in 4-point dose response fashion.
The EC50 for (imaging and western based) activity is graded as: +++=<500 nM; ++=500 nM to 5 μM; +=5 to 30 μM); −=>30 μM; NT=Not Tested.

Row | Structure (SMILES) | EC50
1 | CCC(C)n1ncn(-c2ccc(N3CCN(c4ccc(OC[C@@H]5CO[C@@](Cn6cccn6)(c6ccccc6C(N)=O)O5)cc4)CC3)cc2)c1=O (some centres unmarked) [Compound 101] | 5 to 30 µM
2 | CCC(C)n1ncn(-c2ccc(N3CCN(c4ccc(OC[C@@H]5CO[C@](Cc6ccnnc6)(c6ccc(Cl)cc6)O5)cc4)CC3)cc2)c1=O (some centres unmarked) [Compound 103] | 0.5 to 5 µM
3 | CCC(C)n1ncn(-c2ccc(N3CCN(c4ccc(OC[C@@H]5CO[C@](Cc6ccnnc6)(c6cccc(Cl)c6)O5)cc4)CC3)cc2)c1=O (some centres unmarked) [Compound 104] | 0.5 to 5 µM
4 | CCC(C)n1ncn(-c2ccc(N3CCN(c4ccc(OC[C@@H]5CO[C@](Cc6ccnnc6)(c6ccccc6Cl)O5)cc4)CC3)cc2)c1=O (some centres unmarked) [Compound 105] | < 0.5 µM
5 | CCC(C)n1ncn(-c2ccc(N3CCN(c4ccc(OC[C@@H]5CO[C@](Cc6ccnnc6)(c6ccc(Cl)c(Cl)c6)O5)cc4)CC3)cc2)c1=O (some centres unmarked) [Compound 106] | < 0.5 µM
6 | CCC(C)n1ncn(-c2ccc(N3CCN(c4ccc(OC[C@@H]5CO[C@](Cc6ccnnc6)(c6ccccc6OC)O5)cc4)CC3)cc2)c1=O (some centres unmarked) [Compound 107] | 0.5 to 5 µM
7 | CCC(C)n1ncn(-c2ccc(N3CCN(c4ccc(OC[C@@H]5CO[C@](Cc6ccnnc6)(c6cccc(OC)c6)O5)cc4)CC3)cc2)c1=O (some centres unmarked) [Compound 108] | 0.5 to 5 µM
8 | CCC(C)n1ncn(-c2ccc(N3CCN(c4ccc(OC[C@@H]5CO[C@](Cc6ccnnc6)(c6ccc(OC)cc6)O5)cc4)CC3)cc2)c1=O (some centres unmarked) [Compound 109] | 0.5 to 5 µM
9 | CCC(C)n1ncn(-c2ccc(N3CCN(c4ccc(OC[C@@H]5CO[C@](Cc6ccnnc6)(c6cccc(C#N)c6)O5)cc4)CC3)cc2)c1=O (some centres unmarked) [Compound 110] | 5 to 30 µM
10 | CCC(C)n1ncn(-c2ccc(N3CCN(c4ccc(OC[C@@H]5CO[C@](Cc6ccnnc6)(c6ccc(C#N)cc6)O5)cc4)CC3)cc2)c1=O (some centres unmarked) [Compound 111] | 5 to 30 µM
11 | CCC(C)n1ncn(-c2ccc(N3CCN(c4ccc(OC[C@@H]5CO[C@](Cc6ccnnc6)(c6ccccc6C(F)(F)F)O5)cc4)CC3)cc2)c1=O (some centres unmarked) [Compound 112] | 0.5 to 5 µM
12 | CCC(C)n1ncn(-c2ccc(N3CCN(c4ccc(OC[C@@H]5CO[C@](Cc6ccnnc6)(c6cccc(C(F)(F)F)c6)O5)cc4)CC3)cc2)c1=O (some centres unmarked) [Compound 113] | 0.5 to 5 µM
13 | CCC(C)n1ncn(-c2ccc(N3CCN(c4ccc(OC[C@@H]5CO[C@](Cc6ccnnc6)(c6ccc(C(F)(F)F)cc6)O5)cc4)CC3)cc2)c1=O (some centres unmarked) [Compound 114] | < 0.5 µM
14 | CCC(C)n1ncn(-c2ccc(N3CCN(c4ccc(OC[C@@H]5CO[C@](Cc6ccnnc6)(c6ccc(OC(F)(F)F)cc6)O5)cc4)CC3)cc2)c1=O (some centres unmarked) [Compound 115] | 0.5 to 5 µM
15 | CCC(C)n1ncn(-c2ccc(N3CCN(c4ccc(OC[C@@H]5CO[C@](Cc6ccnnc6)(c6ccccc6C)O5)cc4)CC3)cc2)c1=O (some centres unmarked) [Compound 116] | < 0.5 µM
16 | CCC(C)n1ncn(-c2ccc(N3CCN(c4ccc(OC[C@@H]5CO[C@](Cc6ccnnc6)(c6cccc(C)c6)O5)cc4)CC3)cc2)c1=O (some centres unmarked) [Compound 117] | 0.5 to 5 µM
17 | CCC(C)n1ncn(-c2ccc(N3CCN(c4ccc(OC[C@@H]5CO[C@](Cc6ccnnc6)(c6ccc(C)cc6)O5)cc4)CC3)cc2)c1=O (some centres unmarked) [Compound 118] | 5 to 30 µM
18 | CCC(C)n1ncn(-c2ccc(N3CCN(c4ccc(OC[C@@H]5CO[C@](Cc6ccnnc6)(c6ccc(S(C)(=O)=O)cc6)O5)cc4)CC3)cc2)c1=O (some centres unmarked) [Compound 119] | 5 to 30 µM
19 | CCC(C)n1ncn(-c2ccc(N3CCN(c4ccc(OC[C@@H]5CO[C@](Cc6ccnnc6)(c6ccc(S(N)(=O)=O)cc6)O5)cc4)CC3)cc2)c1=O (some centres unmarked) [Compound 120] | > 30 µM
20 | CCC(C)n1ncn(-c2ccc(N3CCN(c4ccc(OC[C@@H]5CO[C@](Cc6ccnnc6)(c6ccc(C(N)=O)cc6)O5)cc4)CC3)cc2)c1=O (stereo partly drawn) [Compound 121, 4-((2S,4R)-4-((4-(4-(4-(1-sec-butyl-5-oxo-1H-1,2,4-triazol-4(5H)-yl)phenyl)piperazin-1-yl)phenoxy)methyl)-2-(pyridazin-4-ylmethyl)-1,3-dioxolan-2-yl)benzamide] | 5 to 30 µM
21 | CCC(C)n1ncn(-c2ccc(N3CCN(c4ccc(OC[C@@H]5CO[C@](Cc6ccnnc6)(c6cc(Cl)cc(Cl)c6)O5)cc4)CC3)cc2)c1=O (some centres unmarked) [Compound 122] | < 0.5 µM
22 | CCC(C)n1ncn(-c2ccc(N3CCN(c4ccc(OC[C@@H]5CO[C@@](Cc6ccnnc6)(c6ccc(Cl)cc6)O5)cc4)CC3)cc2)c1=O (some centres unmarked) [Compound 123] | < 0.5 µM

Row | Structure (SMILES) | EC50
23 | CCC(C)n1ncn(-c2ccc(N3CCN(c4ccc(OC[C@@H]5CO[C@@](Cc6ccnnc6)(c6cccc(Cl)c6)O5)cc4)CC3)cc2)c1=O (some centres unmarked) [Compound 124] | < 0.5 µM
24 | CCC(C)n1ncn(-c2ccc(N3CCN(c4ccc(OC[C@@H]5CO[C@@](Cc6ccnnc6)(c6ccccc6Cl)O5)cc4)CC3)cc2)c1=O (some centres unmarked) [Compound 125] | < 0.5 µM
25 | CCC(C)n1ncn(-c2ccc(N3CCN(c4ccc(OC[C@@H]5CO[C@@](Cc6ccnnc6)(c6ccc(Cl)c(Cl)c6)O5)cc4)CC3)cc2)c1=O (some centres unmarked) [Compound 126] | < 0.5 µM
26 | CCC(C)n1ncn(-c2ccc(N3CCN(c4ccc(OC[C@@H]5CO[C@@](Cc6ccnnc6)(c6ccccc6OC)O5)cc4)CC3)cc2)c1=O (some centres unmarked) [Compound 127] | < 0.5 µM
27 | CCC(C)n1ncn(-c2ccc(N3CCN(c4ccc(OC[C@@H]5CO[C@@](Cc6ccnnc6)(c6cccc(OC)c6)O5)cc4)CC3)cc2)c1=O (some centres unmarked) [Compound 128] | 0.5 to 5 µM
28 | CCC(C)n1ncn(-c2ccc(N3CCN(c4ccc(OC[C@@H]5CO[C@@](Cc6ccnnc6)(c6ccc(OC)cc6)O5)cc4)CC3)cc2)c1=O (some centres unmarked) [Compound 129] | < 0.5 µM
29 | CCC(C)n1ncn(-c2ccc(N3CCN(c4ccc(OC[C@@H]5CO[C@@](Cc6ccnnc6)(c6cccc(C#N)c6)O5)cc4)CC3)cc2)c1=O (some centres unmarked) [Compound 130] | 0.5 to 5 µM
30 | CCC(C)n1ncn(-c2ccc(N3CCN(c4ccc(OC[C@@H]5CO[C@@](Cc6ccnnc6)(c6ccc(C#N)cc6)O5)cc4)CC3)cc2)c1=O (some centres unmarked) [Compound 131] | > 30 µM
31 | CCC(C)n1ncn(-c2ccc(N3CCN(c4ccc(OC[C@@H]5CO[C@@](Cc6ccnnc6)(c6ccccc6C(F)(F)F)O5)cc4)CC3)cc2)c1=O (some centres unmarked) [Compound 132] | < 0.5 µM
32 | CCC(C)n1ncn(-c2ccc(N3CCN(c4ccc(OC[C@@H]5CO[C@@](Cc6ccnnc6)(c6cccc(C(F)(F)F)c6)O5)cc4)CC3)cc2)c1=O (some centres unmarked) [Compound 133] | < 0.5 µM
33 | CCC(C)n1ncn(-c2ccc(N3CCN(c4ccc(OC[C@@H]5CO[C@@](Cc6ccnnc6)(c6ccc(C(F)(F)F)cc6)O5)cc4)CC3)cc2)c1=O (some centres unmarked) [Compound 134] | < 0.5 µM
34 | CCC(C)n1ncn(-c2ccc(N3CCN(c4ccc(OC[C@@H]5CO[C@@](Cc6ccnnc6)(c6ccc(OC(F)(F)F)cc6)O5)cc4)CC3)cc2)c1=O (some centres unmarked) [Compound 135] | < 0.5 µM
35 | CCC(C)n1ncn(-c2ccc(N3CCN(c4ccc(OC[C@@H]5CO[C@@](Cc6ccnnc6)(c6ccccc6C)O5)cc4)CC3)cc2)c1=O (some centres unmarked) [Compound 136] | 0.5 to 5 µM
36 | CCC(C)n1ncn(-c2ccc(N3CCN(c4ccc(OC[C@@H]5CO[C@@](Cc6ccnnc6)(c6cccc(C)c6)O5)cc4)CC3)cc2)c1=O (some centres unmarked) [Compound 137] | < 0.5 µM
37 | CCC(C)n1ncn(-c2ccc(N3CCN(c4ccc(OC[C@@H]5CO[C@@](Cc6ccnnc6)(c6ccc(C)cc6)O5)cc4)CC3)cc2)c1=O (some centres unmarked) [Compound 138] | < 0.5 µM
38 | CCC(C)n1ncn(-c2ccc(N3CCN(c4ccc(OC[C@@H]5CO[C@@](Cc6ccnnc6)(c6cc(Cl)cc(Cl)c6)O5)cc4)CC3)cc2)c1=O (some centres unmarked) [Compound 139] | < 0.5 µM
39 | CCC(C)n1ncn(-c2ccc(N3CCN(c4ccc(OC(C)[C@@H]5CO[C@@](Cn6nccn6)(c6ccccc6)O5)cc4)CC3)cc2)c1=O (some centres unmarked) [Compound 140] | 5 to 30 µM
40 | CCC(C)n1ncn(-c2ccc(N3CCN(c4ccc(OCCO[C@@H](Cn5nccn5)c5ccccc5)cc4)CC3)cc2)c1=O (some centres unmarked) [Compound 141] | > 30 µM
41 | CCC(C)n1ncn(-c2ccc(N3CCN(c4ccc(OCCCO[C@@H](Cn5nccn5)c5ccccc5)cc4)CC3)cc2)c1=O (some centres unmarked) [Compound 142] | > 30 µM
42 | CCC(C)n1ncn(-c2ccc(N3CCN(c4ccc(OC[C@@H]5CO[C@@](Cn6nccn6)(c6ccccc6)C5)cc4)CC3)cc2)c1=O (some centres unmarked) [Compound 143] | 5 to 30 µM
43 | CCC(CC)n1ncn(-c2ccc(N3CCN(c4ccc(OC[C@H]5CO[C@](Cn6nccn6)(c6ccccc6)C5)cc4C#N)CC3)cc2)c1=O [Compound 144] | > 30 µM
44 | O=c1n(-c2ccc(N3CCN(c4ccc(OC[C@H]5CO[C@](Cn6nccn6)(c6ccccc6)C5)cc4F)CC3)cc2)cnn1CC1CCCC1 [Compound 145] | 5 to 30 µM
